According to patent publication US20250326755A1, “CYCLIC QUATERNARY AMMONIUM SALT COMPOUND, AND PREPARATION METHOD THEREFOR AND USE THEREOF” (YICHANG HUMANWELL PHARMACEUTICAL CO., LTD., priority 2022, published 2025):
Where two headings read alike, the source gives them in different places.

Key:
Type in all cases: in vivo, SD rats
[1] = tested on: rat subcutaneous infiltration model; test: Local anesthetic effect by subcutaneous infiltration, Von Frey needle stimulation of back skin; settings: 1 mg/ml, 0.5 mL subcutaneous injection on the back, 10 rats
Procedure: After shaving and disinfecting the backs of SD rats (half male and half female) weighing 190-210 grams, a circle with a diameter of approximately 1.5 cm was drawn on one side of the exposed skin. 0.5 mL of a solution containing the drug was subcutaneously injected into the skin in the center. The solution, using physiological saline as the solvent, contained either 2 mg/ml bupivacaine hydrochloride or 1 mg/ml concentration of the compounds listed in Table 2 of the present application. Each group consisted of 10 rats. A Von Frey fiber with a 100-gram force was attached to a needle for local skin stimulation. One minute after drug administration, the rat's response to the stimulus was measured. Testing was conducted at 6 different points within the marked area of drug administration. Skin contraction, avoidance, and other behaviors following stimulation were observed and recorded. Three points in the center and three points around the circle were stimulated, and the number of skin contraction and avoidance behaviors was recorded as N6. […] Each compound was tested on 10 rats.

[2] = tested on: rat subcutaneous infiltration model; test: as above
[3] = tested on: sciatic nerve of the rat
Procedure: The experimental methods described in the following test examples were standard procedures unless otherwise specified. All experimental animals used in the following test examples were SD rats purchased from Hunan Slac Jingda Experimental Animal Co., Ltd. Other test materials, unless stated otherwise, were purchased from conventional biochemical reagent suppliers.
The compounds listed in Table 1 and levobupivacaine hydrochloride (positive control) were administered to three groups of rats fully acclimated to the experimental environment, with one rat per group.
Solution Preparation: 2 mg/ml Levobupivacaine Hydrochloride Injection: 2.670 ml of 7.5 mg/ml levobupivacaine hydrochloride injection (Batch No. 92S0702) was pipetted into a 10 ml volumetric flask. 0.9% NaCl solution was added until the meniscus was level with the calibration line, and the solution was inverted and mixed thoroughly, to prepare 2 mg/ml levobupivacaine hydrochloride injection. 2 mg/ml Example Compound Solution: 6.6 mg of the example compound was accurately weighed and dissolved in 3.3 ml of 0.9% NaCl solution to prepare a 2 mg/ml example compound solution.
Both the positive control and the example compound were administered to each rat at 2 mg/ml, with an administration volume of 5 ml/kg, in a single injection near the sciatic nerve of the rat. After the administration, the rat was placed on a preheated hot plate (50±0.1° C.) of an intelligent hot plate instrument. […] The maximum thermal latency was controlled at 60 s. […] Any urine or feces on the hot plate was promptly cleaned and dried before subsequent tests.
Thermal latency results were expressed as the maximum proportional effect (MPE), calculated using the following formula.
Wherein: B represented the basal thermal latency of the rats; P was the maximum thermal latency C was the observed thermal latency at the detection time point.
Measurements were considered invalid if the MPE was less than 50% of the maximum proportional effect. If two consecutive measurements yielded an MPE of less than […], the experiment was terminated.

[4] = 2 mg/ml, 5 ml/kg, single injection near the sciatic nerve of the rat, hot plate 50±0.1° C.

In the case of `CCCC[N+]1(CCCCOc2cccc(C)c2)CCCC[C@H]1C(=O)Nc1c(C)cccc1C` (stereo partly drawn) [Compound of Example 5, (2S)-1-Butyl-2-((2,6-dimethylphenyl)carbamoyl)-1-(4-(m-tolyloxy)butyl)piperidine bromide], the Duration/h [1] is reported as 72 to 96 h, the “Onset Time/min” value [1] is reported as 1 min and the Duration/h ([2]; Drug Concentration 0.3 mmol/L) is reported as 24 to 48 h. For the same molecule, the Duration/h ([2]; Drug Concentration 1 mmol/L) was 48 to 72 h, the Duration/h [3, 4] was 48 to 72 h and the “Onset Time/min” value [3, 4] was 1 min.
`CCCC[N+]1(CCCCOc2c(C)cc(C)cc2C)CCCC[C@H]1C(=O)Nc1c(C)cccc1C` (stereo partly drawn) [Compound of Example 25, (2S)-1-Butyl-2-((2,6-dimethylphenyl)carbamoyl)-1-(4-(symmetricalmesityloxy)butyl)piperidine bromide] was tested, and the Duration/h [1] was 72 to 96 h, the “Onset Time/min” value [1] was 1 min and the Duration/h ([2]; Drug Concentration 0.3 mmol/L) was 24 to 48 h. For the same molecule, the Duration/h ([2]; Drug Concentration 1 mmol/L) was 48 to 72 h and the “Onset Time/min” value [3, 4] was 1 min.
With `CCCC[N+]1(CCCCCN2CCn3cccc3C2C)CCCC[C@H]1C(=O)Nc1c(C)cccc1C` (stereo partly drawn) [Compound of Example 12, (2S)-1-Butyl-2-((2,6-dimethylphenyl)carbamoyl)-1-(5(1-methyl-3,4-dihydropyrrolo[1,2-a]pyrazin-2(1H)-yl)pentyl)piperidine bromide] the Duration/h [1] was 48 to 72 h, the “Onset Time/min” value [1] was 1 min and the Duration/h [3, 4] was 24 to 48 h. The “Onset Time/min” value [3, 4] was 1 min.
With `CCCC[N+]1(CCCCCN(C)c2ccccc2)CCCC[C@H]1C(=O)Nc1c(C)cccc1C` (stereo partly drawn) [Compound of Example 8, (2S)-1-Butyl-2-((2,6-dimethylphenyl)carbamoyl)-1-(5-(methyl(phenyl)amino)pentyl)piperidine bromide] the Duration/h [1] was 48 to 72 h, the “Onset Time/min” value [1] was 1 min and the Duration/h [3, 4] was 24 to 48 h. For the same molecule, the “Onset Time/min” value [3, 4] was 1 min.
For `CCCC[N+]1(CCCCCN2CCn3ccnc3C2)CCCC[C@H]1C(=O)Nc1c(C)cccc1C` (stereo partly drawn) [Compound of Example 11, (2S)-1-Butyl-1-(5-(5,6-dihydroimidazo[1,2-a]pyrazin-7(8H)-yl)pentyl)-2-((2,6-dimethylphenyl)carbamoyl)piperidine bromide], the Duration/h [1] was 48 to 72 h, the “Onset Time/min” value [1] was 1 min and the Duration/h [3, 4] was 24 to 48 h. For the same molecule, the “Onset Time/min” value [3, 4] was 1 min.
`CCCC[N+]1(CCCCOc2cccc3c2OC(C)(C)C3)CCCC[C@H]1C(=O)Nc1c(C)cccc1C` (stereo partly drawn) [Compound of Example 44, (2S)-1-Butyl-1-(4-((2,2-dimethyl-2,3-dihydrobenzofuran-7-yl)oxy)butyl)-2-((2,6-dimethylphenyl)carbamoyl)piperidine bromide] was tested, and the Duration/h [1] was 48 to 72 h, the “Onset Time/min” value [1] was 1 min and the “Onset Time/min” value [3, 4] was 1 min.
With `CCCC[N+]1(CCCCCN2CCn3cccc3C2c2ccccc2)CCCC[C@H]1C(=O)Nc1c(C)cccc1C` (stereo partly drawn) [Compound of Example 13, (2S)-1-Butyl-2-((2,6-dimethylphenyl)carbamoyl)-1-(5-1-phenyl-3,4-dihydropyrrolo[1,2-a]pyrazin-2(1H)-yl)pentyl)piperidine bromide] the Duration/h [1] was 48 to 72 h, the “Onset Time/min” value [1] was 1 min and the Duration/h [3, 4] was 24 to 48 h. For the same molecule, the “Onset Time/min” value [3, 4] was 1 min.
For `CCCC[N+]1(CCCCCNc2ccc(F)cc2)CCCC[C@H]1C(=O)Nc1c(C)cccc1C` (stereo partly drawn) [Compound of Example 10, (2S)-1-Butyl-2-((2,6-dimethylphenyl)carbamoyl)-1-(5-(p-fluorophenylamino)pentyl)piperidine bromide], the Duration/h [1] was 48 to 72 h, the “Onset Time/min” value [1] was 2 min and the “Onset Time/min” value [3, 4] was 2 min.
`CCCC[N+]1(CCCCOc2ccccc2)CCCC[C@H]1C(=O)Nc1c(C)cccc1C` (stereo partly drawn) [Compound of Example 4, (2S)-1-Butyl-2-((2,6-dimethylphenyl)carbamoyl)-1-(4-(phenoxy)butyl)piperidine bromide] was tested, and the Duration/h [1] was 72 to 96 h, the “Onset Time/min” value [1] was 1 min and the Duration/h ([3]; rat, in vivo) was 48 to 72 h. The “Onset Time/min” value ([3]; rat, in vivo) was 1 min.
For `CCCC[N+]1(CCCCCOc2cc(F)ccc2N)CCCC[C@H]1C(=O)Nc1c(C)cccc1C` (stereo partly drawn) [Compound of Example 16, (2S)-1-(5-(2-amino-5-fluorophenoxy)pentyl)-1-butyl-2-((2,6-dimethylphenyl)carbamoyl)piperidine bromide], the Duration/h [1] was 48 to 72 h, the “Onset Time/min” value [1] was 1 min and the Duration/h [3, 4] was 24 to 48 h. The “Onset Time/min” value [3, 4] was 1 min.
For `CCCC[N+]1(CCCCNc2ccccc2)CCCC[C@H]1C(=O)Nc1c(C)cccc1C` (stereo partly drawn) [Compound of Example 1, (2S)-1-Butyl-2-((2,6-dimethylphenyl)carbamoyl)-1-(4-(phenylamino)butyl)piperidine bromide], the Duration/h [1] was 48 to 72 h, the “Onset Time/min” value [1] was 1 min and the Duration/h ([3]; rat, in vivo) was 24 to 48 h. The “Onset Time/min” value ([3]; rat, in vivo) was 1 min.
In the case of `CCCC[N+]1(CCCCOc2ccccc2)CCCC[C@H]1C(=O)Nc1c(Br)cccc1Br` (stereo partly drawn) [Compound of Example 40, (2S)-1-Butyl-2-((2,6-dibromophenyl)carbamoyl)-1-(4-phenoxybutyl)piperidine bromide], the Duration/h [1] is reported as 48 to 72 h, the “Onset Time/min” value [1] is reported as 1 min and the Duration/h ([3]; rat, in vivo) is reported as 32 to 48 h. The “Onset Time/min” value ([3]; rat, in vivo) was 1 min.
In the case of `CCCC[N+]1(CCCCCNc2ccccc2)CCCC[C@H]1C(=O)Nc1c(C)cccc1C` (stereo partly drawn) [Compound of Example 7, (2S)-1-Butyl-2-((2,6-dimethylphenyl)carbamoyl)-1-(5-(phenylamino)pentyl)piperidine bromide], the Duration/h [1] is reported as 48 to 72 h, the “Onset Time/min” value [1] is reported as 2 min and the Duration/h ([3]; rat, in vivo) is reported as 24 to 48 h. The “Onset Time/min” value ([3]; rat, in vivo) was 2 min.
For `CCCC[N+]1(CCC(C)CCNc2ccc(F)cc2)CCCC[C@H]1C(=O)Nc1c(C)cccc1C` (stereo partly drawn) [Compound of Example 18, (2S)-1-Butyl-2-((2,6-dimethylphenyl)carbamoyl)-1-(5-(((4-fluorophenyl)amino)-3-methylpentyl)piperidine bromide], the Duration/h [1] was 24 to 28 h, the “Onset Time/min” value [1] was 2 min and the Duration/h [3, 4] was 17 h. The “Onset Time/min” value [3, 4] was 2 min.
With `Cc1cccc(C)c1NC(=O)[C@@H]1CCCC[N+]1(CCCCOc1ccccc1)CC1CCCC1` (stereo partly drawn) [Compound of Example 36, (2S)-1-(Cyclopentylmethyl)-2-((2,6-dimethylphenyl)carbamoyl)-1-(4-phenoxybutyl)piperidine bromide] the Duration/h [1] was 48 to 72 h, the “Onset Time/min” value [1] was 1 min and the Duration/h [3, 4] was 30 to 48 h. For the same molecule, the “Onset Time/min” value [3, 4] was 1 min.
`CCCC[N+]1(CCCCCOc2cccc(C)c2)CCCC[C@H]1C(=O)Nc1c(C)cccc1C` (stereo partly drawn) [Compound of Example 15, (2S)-1-Butyl-2-((2,6-dimethylphenyl)carbamoyl)-1-(5-(m-tolyloxy)pentyl)piperidine bromide] was tested, and the Duration/h [1] was 48 to 72 h, the “Onset Time/min” value [1] was 1 min and the Duration/h [3, 4] was 24 to 48 h. For the same molecule, the “Onset Time/min” value [3, 4] was 1 min.
In the case of `CCCC[N+]1(CCCCOc2cc(F)ccc2N)CCCC[C@H]1C(=O)Nc1c(C)cccc1C` (stereo partly drawn) [Compound of Example 6, (2S)-1-(4-(2-amino-5-fluorophenoxy)butyl)-1-butyl-2-((2,6-dimethylphenyl)carbamoyl) piperidine bromide], the Duration/h [1] is reported as 48 to 72 h, the “Onset Time/min” value [1] is reported as 1 min and the Duration/h [3, 4] is reported as 24 to 48 h. For the same molecule, the “Onset Time/min” value [3, 4] was 1 min.
With `CCCC[N+]1(CCCCOc2cccc(F)c2)CCCC[C@H]1C(=O)Nc1c(C)cccc1C` (stereo partly drawn) [Compound of Example 26, (2S)-1-Butyl-2-((2,6-dimethylphenyl)carbamoyl)-1-(4-(3-fluorophenoxy)butyl)piperidine bromide] the Duration/h [1] was 48 to 72 h, the “Onset Time/min” value [1] was 1 min and the Duration/h [3, 4] was 24 to 42 h. The “Onset Time/min” value [3, 4] was 1 min.
`CCCC[N+]1(CCCCCNc2ccc(C)cc2)CCCC[C@H]1C(=O)Nc1c(C)cccc1C` (stereo partly drawn) [Compound of Example 9, (2S)-1-Butyl-2-((2,6-dimethylphenyl)carbamoyl)-1-(5-(p-toluylamino)pentyl)piperidine bromide] was tested, and the Duration/h [1] was 48 to 72 h, the “Onset Time/min” value [1] was 1 min and the Duration/h [3, 4] was 24 to 48 h. For the same molecule, the “Onset Time/min” value [3, 4] was 1 min.
